Measured values published in patent US12383510B2 (Starton Therapeutics, Inc., priority 2020, dated 2025).
“Also recorded” adds a separate entry of the source. Marks after values point to notes of the source that are not given here.

Legend:
[1] = test system: healthy female volunteers; assay: Phase 1 study: antiemetic effect of oral olanzapine doses following apomorphine challenge on day 8; format: in vivo, human; conditions: for Nausea Score 1-120 min.: apomorphine 0.05 mg/kg, scale 1=no nausea, 10=severe nausea
Procedure: Twenty-four healthy female volunteers were enrolled. Four active-treatment groups and a cohort of placebo-treated subjects were evaluated.
Subjects were administered study drug once daily for 8 days. During this period, subjects maintained a study diary of their side effects. The subject diary was used to collect on a daily basis any adverse events including an assessment of the presence and/or intensity of sedation on a numeric scale where 1=no sedation and 10=excessive sedation.
On the 8th day, subjects were administered apomorphine at a dose of 0.05 mg/kg and assessed over 6 hours. During this period, subjects were asked to record episodes of nausea on a numeric scale every 15 minutes for the duration of assessment. The intensity of nausea was captured using a 1-10 rating scale where 1=no nausea and 10=severe nausea. Emesis intensity was also captured where 1=no emesis and 10=severe emesis. Episodes of retching or emesis were collected and measured for the absolute number of retches or vomits during the collection period and documented for the time of the specific event following the administration of the apomorphine.

clinical = conditions: human, plasma, oral
[2] = oral olanzapine 2 mg a day, apomorphine challenge
[3] = oral olanzapine 4 mg a day, apomorphine challenge
[4] = oral olanzapine 6 mg a day, apomorphine challenge
[5] = oral olanzapine 8 mg a day, apomorphine challenge

Question: Which results are given for `Cc1cc2c(s1)Nc1ccccc1N=C2N1CCN(C)CC1` [olanzapine, 2-methyl-10-(4-methyl-1-piperazinyl)-4H-thieno-[2,3-b][1,5]benzo-diazepine]?
Answer: Nausea severity scores during 0-120 min following apomorphine challenge, comparison with placebo ([1]; 2 mg olanzapine steady state dose): not significantly different than placebo; Nausea severity scores during 0-120 min following apomorphine challenge, comparison with placebo ([1]; 4 mg olanzapine steady state dose, p<0.05): significantly different than placebo; Maximum intensity of nausea, comparison between doses ([1]; 4 mg, 6 mg and 8 mg dose, apomorphine challenge): no different; Nausea severity scores during 0-120 min following apomorphine challenge, comparison with placebo ([1]; 6 mg olanzapine steady state dose, p<0.05): significantly different than placebo; Nausea severity scores during 0-120 min following apomorphine challenge, comparison with placebo ([1]; 8 mg olanzapine steady state dose): not different from the placebo control; also recorded: not significantly different than placebo; Nausea Score 1-120 min. ([1]; oral olanzapine 2 mg a day for 8 days): 6**; Nausea Score 1-120 min. (severity in words) [1, 2]: Moderate; Retching (incidence) [1, 2]: 40%; Vomiting (incidence) [1, 2]: 40%; Nausea Score 1-120 min. ([1]; oral olanzapine 4 mg a day for 8 days): 3.4 #; Nausea Score 1-120 min. (severity in words) [1, 3]: Mild; Retching (incidence) [1, 3]: 0%; Vomiting (incidence) [1, 3]: 20%; Nausea Score 1-120 min. ([1]; oral olanzapine 6 mg a day for 8 days): 3.7 #; Nausea Score 1-120 min. (severity in words) [1, 4]: Mild; Retching (incidence) [1, 4]: 0%; Vomiting (incidence) [1, 4]: 0%; Nausea Score 1-120 min. ([1]; oral olanzapine 8 mg a day for 8 days): 5**; Nausea Score 1-120 min. (severity in words) [1, 5]: Mild; Retching (incidence) [1, 5]: 20%; Vomiting (incidence) [1, 5]: 20%; concentration at 1 day (clinical; 4 mg a day): 5 ng/mL; concentration at 1 day (clinical; 6 mg a day): 8 ng/mL
